Like-named read-outs stand apart in the source and are kept apart here.
Tests used:
[1] = tested on: Caco-2 human colon carcinoma cell line; experiment: Caco-2 permeability assay; type: in vitro ADME; conditions: SI table, remark in Recovery A:B cell
Protocol: (§1) Whether the inhibition of ERAP1 by 1 would translate to in-cell activity would depend on its permeability, as well as its affinity.
(§2) Papp (apparent permeability) was determined in the Caco-2 human colon carcinoma cell line (ATCC). Cells were maintained (DMEM with 10% fetal bovine serum, penicillin, and streptomycin) in a humidified atmosphere with 5% CO2/95% air for 10 days. Cells were plated out onto a cell culture assembly plate (Millipore, UK), and monolayer confluency was checked using a TEER electrode prior to the assay. Media was washed off and replaced in the appropriate apical and basal wells with HBSS buffer (pH 7.4) containing compound (10 μM, 1% DMSO). The Caco-2 plate was incubated for 2 h at 37 °C, and Lucifer Yellow was used to confirm membrane integrity after the assay. Samples from the apical and basolateral chambers were analyzed using a Waters TQ-S LC-MS/MS system.

[2] = Caco-2 permeability assay; type: in vitro ADME, human; conditions: human; for recovery at 2 h, 10 μM: Caco-2, pH 7.4, SI table; for Papp B→A at 2 h, 10 μM / Papp A→B at 2 h, 10 μM: Caco-2, pH 7.4; for Papp B→A at 2 h, 10 μM: SI table; for Papp A→B at 2 h, 10 μM: apical to basolateral, limit of quantification 1.0 x 10^−6 cm/s, read-out: CACO2 Papp A:B
Protocol: as §1, §2

human ERAP2 = human ERAP2 (Homo sapiens, UniProt Q6P179); experiment: ERAP2 R-AMC aminopeptidase assay; conditions: ERAP2 10 nM, R-AMC 10 µM, pH8.0, 30 min
human ERAP2, sequence (Q6P179 whole entry): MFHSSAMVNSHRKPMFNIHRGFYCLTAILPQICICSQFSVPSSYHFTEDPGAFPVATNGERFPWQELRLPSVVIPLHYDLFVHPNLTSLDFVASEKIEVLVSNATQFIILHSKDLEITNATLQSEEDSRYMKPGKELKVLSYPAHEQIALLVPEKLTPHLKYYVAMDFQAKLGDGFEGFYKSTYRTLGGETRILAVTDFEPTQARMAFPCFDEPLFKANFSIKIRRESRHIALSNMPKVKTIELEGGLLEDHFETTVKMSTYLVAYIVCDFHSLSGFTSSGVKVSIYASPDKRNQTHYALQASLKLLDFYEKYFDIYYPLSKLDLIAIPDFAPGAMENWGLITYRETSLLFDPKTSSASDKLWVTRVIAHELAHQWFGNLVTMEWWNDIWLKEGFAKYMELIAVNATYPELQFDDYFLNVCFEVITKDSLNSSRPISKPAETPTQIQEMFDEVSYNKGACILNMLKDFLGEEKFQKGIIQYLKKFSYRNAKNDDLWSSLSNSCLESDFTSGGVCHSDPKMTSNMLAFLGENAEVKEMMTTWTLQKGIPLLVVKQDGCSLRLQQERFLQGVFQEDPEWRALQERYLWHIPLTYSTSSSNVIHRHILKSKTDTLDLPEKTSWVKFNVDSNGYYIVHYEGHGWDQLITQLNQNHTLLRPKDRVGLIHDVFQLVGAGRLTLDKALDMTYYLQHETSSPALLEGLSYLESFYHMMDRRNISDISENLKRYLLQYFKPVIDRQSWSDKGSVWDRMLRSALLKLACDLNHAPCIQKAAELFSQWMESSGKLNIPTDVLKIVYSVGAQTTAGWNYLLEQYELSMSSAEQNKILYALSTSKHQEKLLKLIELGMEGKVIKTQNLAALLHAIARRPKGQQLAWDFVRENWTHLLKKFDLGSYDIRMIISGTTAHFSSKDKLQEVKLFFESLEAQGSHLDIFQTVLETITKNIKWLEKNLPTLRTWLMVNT
From the text: Conditions were selected whereby substrate concentrations were at or below Km, so that IC50 values could be compared between proteins for competitive ligands.
Briefly, the assay consists in measuring the fluorescence of 7-amido-4-methylcoumarin (AMC) released by the enzymatic hydrolysis of one of the short peptide substrates: Leucine-AMC (Sigma, catalogue # L2145) by the ERAP1 enzyme, Arginine-AMC (Sigma, catalogue # A2027) by the ERAP2 enzyme or Alanine-AMC (Sigma, catalogue #A4302) by the APN (ANPEP/CD13) enzyme. […] After 30 minutes of reaction at room temperature, the fluorescence was red on a Pherastar FSX (BMG LabTech) or an Envision (Perkin Elmer) plate readers, with excitation and emission filters at 350 nm and 460 nm, respectively.

Structure (SMILES)	stability observation in Caco-2 assay A:B [1]	recovery at 2 h, 10 μM ([2]; read-out: Recovery A:B) [%]	recovery at 2 h, 10 μM ([2]; read-out: Recovery B:A) [%]	Papp B→A at 2 h, 10 μM [2] [×10⁻⁶ cm/s]	Papp A→B at 2 h, 10 μM [2] [×10⁻⁶ cm/s]	efflux ratio at 2 h, 10 μM ([2]; Caco-2, pH 7.4, PappB:A/PappA:B, read-out: CACO2 ER (efflux ratio))	ERAP2 pIC50 ± SEM (human ERAP2)	IC50 (human ERAP2; read-out: ERAP2 IC50 (geometric mean)) [µM]
COC(=O)[C@H](Cc1c[nH]c2ccccc12)NC(=O)C(CC(C)C)CP(=O)(O)[C@@H](N)CCc1ccccc1 (stereo in doubt) [compound 17, ((R)-2-(((S)-3-(1H-indol-3-yl)-1-methoxy-1-oxopropan-2-yl)carbamoyl)-4-methylpentyl)((R)-1-amino-3-phenylpropyl)phosphinic acid]	Ester hydrolysis observed	2	84	< 1	< 1			
CC(C)CC(CP(=O)(O)[C@@H](N)CCc1ccccc1)C(=O)N[C@@H](Cc1c[nH]c2ccccc12)C(=O)O (stereo in doubt) [compound 18, ((2R)-2-((((R)-1-amino-3-phenylpropyl)(hydroxy)phosphoryl)methyl)-4-methylpentanoyl)-L-tryptophan]		83	96	< 1	< 1			
CC(C)C[C@H](CP(=O)(O)[C@@H](N)CCc1ccccc1)C(=O)N[C@@H](Cc1c[nH]c2ccccc12)C(N)=O [DG013A 1, ((S)-2-(((S)-1-amino-3-(1H-indol-3-yl)-1-oxopropan-2-yl)carbamoyl)-4-methylpentyl)((R)-1-amino-3-phenylpropyl)phosphinic acid, reference compound]		97	100	< 1	< 1			
CC(C)C[C@@H](CP(=O)(O)[C@@H](N)CCc1ccccc1)C(=O)N[C@@H](Cc1c[nH]c2ccccc12)C(N)=O [DG013B 2, reference compound]		83	90	< 1	< 1			
CC(C)C[C@H](CP(=O)(O)[C@H](CCc1ccccc1)NC(=O)OCc1ccccc1)C(=O)N[C@@H](Cc1c[nH]c2ccccc12)C(N)=O [compound 3, (2S)-2-((((1S)-2-amino-1-(1H-indol-3-ylmethyl)-2-oxo-ethyl)carbamoyl)-4-methyl-pentyl)-((1R)-1-(benzyloxycarbonylamino)-3-phenyl-propyl)phosphinic acid]		79	84	4.3	< 1	> 12	< 3.66	> 220

From paper PMC8188423, “Investigating the phosphinic acid tripeptide mimetic DG013A as a tool compound inhibitor of the M1-aminopeptidase ERAP1” (Bioorganic & Medicinal Chemistry Letters, 2021)
